This note sets out measurements from patent US10301314B2, “Compounds and methods for the prevention and treatment of tumor metastasis and tumorigenesis” (The United States of America, as represented by the …, priority 2011, dated 2019).

Molecules are shown by their SMILES.

The subject of experiment [1] is PC3M reporter cell line stably expressing the PTB-GFP. The experiment in a line: ATP quantitation assay (ATPLite). The note with it: Table 4, PC3M cells, 24 hrs incubation; for IC50: Homo sapiens, PC-3M. It counts as cell-based, human. How it is done:
This follow-up assay was conducted to measure the effect of compounds on cell health by measuring ATP levels (ATPLite™). ATPLite™ is an ATP monitoring system based on firefly (Photinus pyralis) luciferase. The level of ATP in a metabolically active cell is a general marker for its viability. ATP levels are often reduced during necrosis or apoptosis. In this assay, the luciferase enzyme catalyzes the conversion of the added substrate D-luciferin to oxyluciferin and light with ATP. Thus, the emitted light is proportional to the ATP concentration. For this assay, the highly metastatic PC3M reporter cell line stably expressing the PTB-GFP was provided by Professor Sui Huang of Northwestern University. The media and cell culture reagents were purchased from Invitrogen (Carlsbad, Calif.), ATPLite™ came from PerkinElmer.

The subject of experiment [2] is PC3M cell line that stably expresses GFP-PTB to mark PNCs. The experiment in a line: High content assay for PNC detection (reduction of PNC prevalence). It counts as cell-based, human. The note with it: Table 4, PC3M GFP-PTB cells, 16 hrs incubation; for IC50: Homo sapiens, PC-3M. The source says: The quantitative output for this assay is the reduction of PNC prevalence. The PNC can be detected in living cells by the expression of a green fluorescent protein (GFP) tagged to the PNC localized protein, PTB. A PC3M cell line was used that stably expresses GFP-PTB to mark PNCs. This method eliminates the need for immunofluorescent staining.
The IN Cell Analyzer 1000 automated fluorescent imaging system (GE Healthcare, Piscataway, N.J.) was used for automated image acquisition. […] The instrument acquired images of each well in a 1536-well plate with a laser-based autofocus system. To score PNC prevalence in a high-content throughput, the Multi-Target Analysis (MTA) algorithm (GE Healthcare, Investigator v3.5) to identify individual cells and granules (PNCs) within these cells was used. The nucleus was segmented via a region growing method (50 μm^2 minimum area) with light shading and noise removal to allow “touching” nuclei to be separated. Granules in the nucleus (PNCs) were segmented using a multiscale top hat method, which measures granules of 1 to 2 μm in size and used a smart masking method to identify the boundaries of each segmented granule. The algorithm was optimized and validated using positive and negative controls (50 μM camptothecin and DMSO, respectively). In particular, the MTA algorithm allows for the identification of multiple subcellular compartments and organelles (or granules) within those compartments. In this instance, the algorithm's capability to identify objects within the same color channel that only differ in size or fluorescent intensity was utilized. Also, the algorithm allows for building complex hierarchical classification systems, using output measures within the algorithm to filter and define subpopulations. For this particular assay, PNC-positive cells were scored when 1 to 3 PNC granules were detected per nucleus. Cells that contained 0 granules were scored as PNC negative, and cells with >3 granules were assumed to be false positives (very few cells have more than 3 PNCs in one focus plane), and were also scored as PNC negative.

A word on the IC50: it is the concentration at which inhibition is half-maximal. Read a low IC50 as greater potency in that assay. With `COc1ccc(Cn2c(-c3ccccc3)c(-c3ccccc3)c3c(=N)n(CCO)cnc32)cc1` [Compound 6], the IC50 in experiment [1] stood at 48.2 µM; in experiment [2], 1.48 µM.

As to `N=c1c2c(-c3ccccc3)c(-c3ccccc3)n(CCc3ccccc3)c2ncn1CCC1CCC(O)CC1` (stereo not drawn) [Compound 67], the IC50 worked out at 24.1 µM in experiment [1] and 0.296 µM in experiment [2].

Consider `N=c1c2c(-c3ccccc3)c(-c3ccccc3)n(CCc3ccccc3)c2ncn1[C@H](CO)Cc1ccccc1` [Compound 48], for which the figures for the IC50 in experiment [1] and in experiment [2] were 30.4 µM and 4.69 µM, respectively.

`N=c1c2c(-c3ccccc3)c(-c3ccccc3)n(Cc3ccc(OC(F)(F)F)cc3)c2ncn1CCCO` [Compound 74]: the concentration for half-maximal inhibition (IC50) in experiment [1] turned out to be 24.1 µM; in experiment [2] it was 0.743 µM.

In the case of `COC(Cn1cnc2c(c(-c3ccccc3)c(-c3ccccc3)n2Cc2ccccc2)c1=N)OC`, the IC50 was found to be 38.3 µM in experiment [1] and 5.9 µM in experiment [2].

`N=c1c2c(-c3ccccc3)cn(Cc3ccccc3)c2ncn1[C@@H]1CCCC[C@H]1N` [Compound 117] displayed an IC50 in experiment [1] of 96.1 µM. In addition, the “PNC IC50(μM)” value in experiment [2] is “inactive”.

As to `N=c1c2c(-c3ccccc3)c(-c3ccccc3)n(CC3CCCCC3)c2ncn1C1CCCC[C@H]1O` (stereo partly drawn) [Compound 80], the half-maximal inhibitory concentration (IC50) in experiment [1] was 21.5 µM; in experiment [2], 1.87 µM.

For the molecule `C[C@H]([C@@H](O)c1ccccc1)n1cnc2c(c(-c3ccccc3)c(-c3ccccc3)n2Cc2ccccc2)c1=N` [Compound 83], the IC50 in experiment [1] was 24.1 µM; in experiment [2], 2.96 µM.

Consider `N=c1c2c(-c3ccccc3)c(-c3ccccc3)n(Cc3ccccc3)c2ncn1CC1CCOCC1` [Compound 88], for which the IC50 in experiment [1] worked out at 30.4 µM; in experiment [2], 4.69 µM.

On to `N=c1c2c(-c3ccccc3)c(-c3ccccc3)n(Cc3ccccc3)c2ncn1CCCN1CCN(c2ccccc2)CC1` [Compound 96], for which the results for the IC50 in experiment [1] and in experiment [2] were 30.4 µM and 11.8 µM, respectively.

`COc1ccc(Cn2c(-c3ccccc3)c(-c3ccccc3)c3c(=N)n([C@H](C)[C@@H](O)c4ccccc4)cnc32)cc1` [Compound 112] displayed a half-inhibitory concentration (IC50) in experiment [1] of 60.7 µM. Further, the “PNC IC50(μM)” value in experiment [2] was “inactive”.

As to `N=c1c2c(-c3ccccc3)c(-c3ccccc3)n(CC3CCCCC3)c2ncn1CCCO` [Compound 106], the values for the IC50 in experiment [1] and in experiment [2] were 30.4 µM and 23.5 µM, respectively.

On to `N=c1c2c(-c3ccccc3)c(-c3ccccc3)n(CC3CCCCC3)c2ncn1C1CCOCC1` [Compound 60], for which the IC50 in experiment [1] came out at 24.1 µM; in experiment [2], 0.118 µM.

Consider `N=c1c2c(-c3ccccc3)c(-c3ccccc3)n(Cc3ccco3)c2ncn1CCO` [Compound 7], for which the 50% inhibitory concentration (IC50) in experiment [1] was determined as 20.4 µM; in experiment [2] it was 0.628 µM.

With `COC(Cn1cnc2c(c(-c3ccccc3)c(-c3ccccc3)n2CCc2ccccc2)c1=N)OC` [Compound 29], the 50% inhibitory concentration (IC50) in experiment [1] stood at 27.1 µM; in experiment [2], 23.5 µM.

Consider `N=c1c2c(-c3ccccc3)cn(Cc3ccccc3)c2ncn1CCCCCO` [Compound 109], for which the IC50 in experiment [1] came out at 96.1 µM; in experiment [2], 46.9 µM.

Regarding `N=c1c2c(-c3ccccc3)c(-c3ccccc3)n(Cc3ccccc3)c2ncn1Cc1ccccc1` [Compound 44], the IC50 came to 19.9 µM in experiment [1] and 15.8 µM in experiment [2].

In the case of `N=c1c2c(-c3ccccc3)cn(Cc3ccccc3)c2ncn1[C@H]1CC[C@H](O)CC1` [Compound 139], the “ATP IC50(μM)” value in experiment [1] was “inactive”. In experiment [2], the “PNC IC50(μM)” value was “inactive”.

Take `N=c1c2c(-c3ccccc3)c(-c3ccccc3)n(Cc3ccc(OC(F)(F)F)cc3)c2ncn1CC1CCOCC1` [Compound 91]: the IC50 was 30.4 µM in experiment [1] and 5.9 µM in experiment [2].

Turning to `COc1ccc(-c2c(-c3ccc(OC)cc3)n(Cc3ccccc3)c3ncn([C@H]4CC[C@@H](O)CC4)c(=N)c23)cc1` [Compound 132], the “ATP IC50(μM)” value in experiment [1] is “inactive”. Besides, the “PNC IC50(μM)” value in experiment [2] is “inactive”.

Take `N=c1c2c(-c3ccccc3)c(-c3ccccc3)n(CCc3ccccc3)c2ncn1CC1CCOCC1` [Compound 90]: the IC50 in experiment [1] turned out to be 76.4 µM; in experiment [2], 5.9 µM.

Regarding `COc1ccc(Cn2c(-c3ccccc3)c(-c3ccccc3)c3c(=N)n(C4CCOCC4)cnc32)cc1` [Compound 59], the figures for the IC50 in experiment [1] and in experiment [2] were 24.1 µM and 0.118 µM, respectively.

In the case of `N=c1c2c(-c3ccccc3)c(-c3ccccc3)n(Cc3ccccc3)c2ncn1CCO` [Compound 4], the IC50 in experiment [1] was 76.4 µM; in experiment [2], 0.118 µM.

Regarding `CC(C)Cn1cnc2c(c(-c3ccccc3)c(-c3ccccc3)n2Cc2ccco2)c1=N` [Compound 141], the IC50 in experiment [1] was 20.4 µM; in experiment [2], 15.8 µM.

In the case of `N=c1c2c(-c3ccccc3)c(-c3ccccc3)n(Cc3ccccc3)c2ncn1Cc1ccc2c(c1)OCO2` [Compound 45], the IC50 in experiment [1] was 24.1 µM; in experiment [2], 9.35 µM.

In experiment [1], `COC(=O)c1ccc(Cn2cnc3c(c(-c4ccccc4)cn3Cc3ccccc3)c2=N)cc1` [Compound 121] registered an IC50 of 121 µM. In addition, the “PNC IC50(μM)” value in experiment [2] is “inactive”.

As to `COc1ccc(-c2c(-c3ccc(OC)cc3)n(Cc3ccccc3)c3ncn(C4CCCC[C@H]4CO)c(=N)c23)cc1` (stereo partly drawn) [Compound 113], the IC50 in experiment [1] is 30.4 µM. In experiment [2], the “PNC IC50(μM)” value was “inactive”.

`N=c1c2c(-c3ccccc3)c(-c3ccccc3)n(CC3CC3)c2ncn1C1CCOCC1` [Compound 64]: the results for the IC50 in experiment [1] and in experiment [2] were 38.3 µM and 0.187 µM, respectively.

Regarding `N=c1c2c(-c3ccccc3)cn(Cc3ccccc3)c2ncn1CC1CCCO1` (stereo not drawn) [Compound 127], the half-maximal inhibitory concentration (IC50) in experiment [1] was 96.1 µM. The “PNC IC50(μM)” value in experiment [2] was “inactive”.

Take `COc1ccc(Cn2c(-c3ccccc3)c(-c3ccccc3)c3c(=N)n(CC(OC)OC)cnc32)cc1` [Compound 30]: the IC50 in experiment [1] came to 24.1 µM; in experiment [2], 5.9 µM.

For `CCOC(CCCn1cnc2c(c(-c3ccccc3)c(-c3ccccc3)n2Cc2ccccc2)c1=N)OCC` [Compound 31], the concentration for half-maximal inhibition (IC50) in experiment [1] is 24.1 µM; in experiment [2] it was 2.96 µM.

As for `N=c1c2c(-c3ccccc3)c(-c3ccccc3)n(CC3CCCCC3)c2ncn1[C@H]1CC[C@H](O)CC1` [Compound 78], the IC50 in experiment [1] amounted to 30.4 µM; in experiment [2], 1.48 µM.

Regarding `COc1ccc(-c2c(-c3ccc(OC)cc3)n(Cc3ccccc3)c3ncn(C4CCCC[C@H]4O)c(=N)c23)cc1` (stereo partly drawn) [Compound 100], the half-inhibitory concentration (IC50) is 48.2 µM in experiment [1] and 14.8 µM in experiment [2].

As for `N=c1c2c(-c3ccccc3)c(-c3ccccc3)n(CCc3ccccc3)c2ncn1CCCCCO` [Compound 16], the IC50 in experiment [1] is 38.3 µM; in experiment [2], 0.59 µM.

As to `N=c1c2c(-c3ccccc3)c(-c3ccccc3)n(Cc3ccccc3)c2ncn1[C@H](CO)Cc1ccccc1` [Compound 108], the IC50 turned out to be 38.3 µM in experiment [1] and 29.6 µM in experiment [2].

For the molecule `N=c1c2c(-c3ccccc3)cn(Cc3ccccc3)c2ncn1CCN` [Compound 136], the “ATP IC50(μM)” value in experiment [1] is “inactive”. Besides, the “PNC IC50(μM)” value in experiment [2] was “inactive”.

For `N=c1c2c(-c3ccccc3)c(-c3ccccc3)n(CCc3ccccc3)c2ncn1C1CCOCC1` [Compound 71], the figures for the concentration for half-maximal inhibition (IC50) in experiment [1] and in experiment [2] were 121 µM and 0.372 µM, respectively.

On to `N=c1c2c(-c3ccccc3)c(-c3ccccc3)n(Cc3ccccc3)c2ncn1CC1CCCO1` (stereo not drawn) [Compound 38], for which the IC50 in experiment [1] turned out to be 96.1 µM; in experiment [2], 0.935 µM.

With `COc1ccc(Cn2c(-c3ccccc3)c(-c3ccccc3)c3c(=N)n(CCCO)cnc32)cc1` [Compound 77], the IC50 in experiment [1] stood at 96.1 µM; in experiment [2], 1.18 µM.
